From PubChem BioAssay (NCI)
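Assay format: 96-well plates, 48-hour exposure. The concentration for 50% growth inhibition is given as GI50. Definition used: TGI = concentration required for complete inhibition of growth.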

Legend:
Assay in all cases: growth of human tumour cells (NCI), 48 h
SR leukemia = test system: SR leukemia
UACC-62 melanoma = test system: UACC-62 melanoma
OVCAR-5 ovarian = test system: OVCAR-5 ovarian
ACHN renal = test system: ACHN renal
NCI-H226 lung = test system: NCI-H226 lung
LOX IMVI melanoma = test system: LOX IMVI melanoma
HS 578T breast = test system: HS 578T breast
A549 NSCLC = test system: A549 NSCLC
OVCAR-3 ovarian = test system: OVCAR-3 ovarian
SF-539 CNS = test system: SF-539 CNS
MALME-3M melanoma = test system: MALME-3M melanoma
BT-549 breast = test system: BT-549 breast
UACC-257 melanoma = test system: UACC-257 melanoma
HOP-62 NSCLC = test system: HOP-62 NSCLC
PC-3 prostate = test system: PC-3 prostate
786-0 renal = test system: 786-0 renal
DU-145 prostate = test system: DU-145 prostate
NCI-H23 lung = test system: NCI-H23 lung
HT29 colon = test system: HT29 colon
RXF 393 renal = test system: RXF 393 renal
CAKI-1 renal = test system: CAKI-1 renal
SW-620 colon = test system: SW-620 colon
MOLT-4 leukemia = test system: MOLT-4 leukemia
OVCAR-4 ovarian = test system: OVCAR-4 ovarian
SK-MEL-5 melanoma = test system: SK-MEL-5 melanoma
M14 melanoma = test system: M14 melanoma
RPMI-8226 leukemia = test system: RPMI-8226 leukemia
MCF7 breast = test system: MCF7 breast
EKVX NSCLC = test system: EKVX NSCLC
SK-OV-3 ovarian = test system: SK-OV-3 ovarian

SMILES: CN1CCN(Cc2ccc(C(=O)Nc3cccc(C#Cc4cccc5[nH]nc(N)c45)c3)cc2C(F)(F)F)CC1
- TGI (SR leukemia): 3350 nM
- GI50 (UACC-62 melanoma): 1140 nM
- TGI (UACC-62 melanoma): 2390 nM
- GI50 (OVCAR-5 ovarian): 1280 nM
- TGI (OVCAR-5 ovarian): 2600 nM
- GI50 (ACHN renal): 409 nM
- TGI (ACHN renal): 1400 nM
- GI50 (NCI-H226 lung): 1000 nM
- TGI (NCI-H226 lung): 2180 nM
- GI50 (LOX IMVI melanoma): 469 nM
- TGI (LOX IMVI melanoma): 1610 nM
- GI50 (HS 578T breast): 1330 nM
- TGI (HS 578T breast): 4640 nM
- GI50 (A549 NSCLC): 721 nM
- TGI (A549 NSCLC): 2010 nM
- GI50 (OVCAR-3 ovarian): 1000 nM
- TGI (OVCAR-3 ovarian): 2510 nM
- GI50 (SF-539 CNS): 305 nM
- TGI (SF-539 CNS): 1350 nM
- GI50 (MALME-3M melanoma): 284 nM
- TGI (MALME-3M melanoma): 1200 nM
- GI50 (BT-549 breast): 1800 nM
- TGI (BT-549 breast): 4060 nM
- GI50 (UACC-257 melanoma): 1360 nM
- TGI (UACC-257 melanoma): 2730 nM
- GI50 (HOP-62 NSCLC): 1470 nM
- TGI (HOP-62 NSCLC): 2890 nM
- GI50 (PC-3 prostate): 1000 nM
- TGI (PC-3 prostate): 2770 nM
- GI50 (786-0 renal): 1280 nM
- TGI (786-0 renal): 2610 nM
- GI50 (DU-145 prostate): 1200 nM
- TGI (DU-145 prostate): 2460 nM
- GI50 (NCI-H23 lung): 1250 nM
- TGI (NCI-H23 lung): 2530 nM
- GI50 (HT29 colon): 603 nM
- TGI (HT29 colon): 1940 nM
- GI50 (RXF 393 renal): 571 nM
- TGI (RXF 393 renal): 1820 nM
- GI50 (CAKI-1 renal): 1160 nM
- TGI (CAKI-1 renal): 2370 nM
- GI50 (SW-620 colon): 968 nM
- TGI (SW-620 colon): 2370 nM
- GI50 (MOLT-4 leukemia): 494 nM
- TGI (MOLT-4 leukemia): 2280 nM
- GI50 (OVCAR-4 ovarian): 889 nM
- TGI (OVCAR-4 ovarian): 3140 nM
- GI50 (SK-MEL-5 melanoma): 1490 nM
- TGI (SK-MEL-5 melanoma): 2810 nM
- GI50 (M14 melanoma): 420 nM
- TGI (M14 melanoma): 1650 nM
- GI50 (RPMI-8226 leukemia): 1120 nM
- TGI (RPMI-8226 leukemia): 3260 nM
- GI50 (MCF7 breast): 1510 nM
- TGI (MCF7 breast): 2900 nM
- GI50 (EKVX NSCLC): 1090 nM
- TGI (EKVX NSCLC): 2300 nM
- GI50 (SK-OV-3 ovarian): 1940 nM
- TGI (SK-OV-3 ovarian): 3470 nM
